These are literature values, as cited in US20050064031A1, “Combination contraceptive, kits that contain the latter, and a method that uses the latter” (priority 1995, published 2005).

In the data set the test system is breast tumors. To be noted: rats treated before the administration of a carcinogen.

Consider `CN(C)c1ccc([C@H]2C[C@]3(C)[C@@H](CC[C@]3(O)CCCO)[C@@H]3CCC4=CC(=O)CCC4=C32)cc1` [onapristone], for which the “development of breast tumors” value is listed as “can be inhibited”.
